Measured values as given in publication PMC8491704, “Pharmacokinetic study of Tangwang Mingmu granule for the management of diabetic retinopathy based on network pharmacology” (Pharmaceutical Biology, 2021).
Like-named read-outs stand apart in the source and are kept apart here.

What was measured:
[1] = Pharmacokinetic study in SD rats after oral administration of TWMM (UPLC-QQQ-MS of plasma); assay type: in vivo, Sprague-Dawley (SD) rats; details: oral TWMM 9.6 g/kg; for AUC(0-t): n = 6, read-out: AUC (0–36); for Cmax: n = 6, read-out: Cmax; for MRT last: n = 6, read-out: MRT (0–36); for MRT inf: n = 6, read-out: MRT (0–∞); for AUC(0-inf): read-out: areas under the concentration-time curve (AUC0–∞)
Description: Chromatographic separation was performed using an ACQUITY UPLC H-Class system equipped with a 1.8 μm HSS T3 analytical column (100 mm × 2.1 i.d., Waters Corporation, Milford, USA). […] ESI source was set to negative ionisation mode while the analysis was performed using multiple reaction monitorin. Ion spray voltage (3000 V), capillary temperature (450 °C), and the source parameters of the nine compounds are shown in Table 2.
The data obtained from the UPLC/Q-Orbitrap MS was imported into Xcalibur 4.0 software for analysis. Furthermore, the constituents acquired using GCMS-QP 2010 were profiled by comparison using the National Institute of Standards and Technology (NIST) database. The pharmacokinetic data were processed through MassLynx 4.1, and DAS 2.0 software was used to calculate the pharmacokinetic parameters according to the compartment model.
Six male SD rats (average weight: 220 ± 10 g) were acquired from Beijing Vital-River Laboratory Animal Technology Co., Ltd. All rats were acclimatized to an environmentally controlled laboratory for a week. Following this period, the rats were exposed to fasting conditions for 12 h but were allowed free access to water before the experiment. The rats were orally administered TWMM at a dose of 9.6 g/kg. Blood samples (300 µL) were collected into heparinized centrifuge tubes from the fossa orbitalis at pre-dose and 0.03, 0.08, 0.17, 0.25, 0.5, 1, 2, 4, 8, 12, 24, and 36 h intervals. The samples were immediately centrifuged at 6000 g for 10 min at 4 °C and the supernatants were transferred to clean centrifuge tubes.
Each 100 µL plasma sample was mixed with 20 µL of methanol, 20 µL of IS (5 µg/mL), and 600 µL acetonitrile. The mixtures were centrifuged at 15,000 g for 10 min at 4 °C after being vortexed for 3 min. The obtained supernatants were transferred to clean 1.5 mL centrifuge tubes, followed by evaporation under a milt nitrogen stream. Next, the obtained residues were individually redissolved in 100 µL of methanol and centrifuged at 15,000 g for 10 min at 4 °C after vortexed for 3 min. Lastly, 10 µL of individual supernatant was injected for analysis.

[2] = Stability of QC samples of 8 compounds in rat plasma (25 °C 4 h, autosampler 12 h, three freeze-thaw cycles, −80 °C 7 d); assay type: in vitro ADME; details: rat, plasma; for Stability in rat plasma, Long term (7 day, –80 °C), Measured: 168 h
Description: The calibration curves were assessed at eight concentration levels using the correlation coefficient (r). The lower limit of quantification (LLOQ) could fulfil the analytical requirements and achieved reliable accuracy and precision with a signal-to-noise ratio (S/N) ≥ 10. To determine intra- and inter-day precision and accuracy, six replicate quality control (QC) samples at three concentrations were prepared. Inter- and intra-day precision was evaluated by determining relative standard deviation (RSD) values, while accuracy was expressed in terms of the relative error (RE). The extraction recoveries were determined using three concentration levels and calculated by comparing the peak area of extracted samples with post-extracted spiked samples. Subsequently, matrix effects were assessed using the peak area of post-extracted spiked samples contrasted with QC samples at the three concentration levels. The stability test of QC samples at the three concentration levels was as follows: storage at 25 °C for 4 h, storage in an autosampler for 12 h, freeze-thaw cycle for three times, and storage at −80 °C for 7 d.
The stability tests were carried out under three freeze-thaw cycles, at 25 °C for 4 h, in an autosampler for 12 h, and at −80 °C for 7 d.

HUVEC cells = assay: Assay of intracellular reactive oxygen species (ROS), DCFH-DA, high glucose; assay type: cell-based, human; details: luteolin 20, 10, 5 µM or formononetin 40, 20, 10 µM for 2 h, then high glucose 24 h
Description: The generation of ROS was detected using dichloro-dihydro-fluorescein diacetate (DCFH-DA, reactive oxygen species assay kit, Solarbio, Beijing) as per manufacturer instructions. In this study, we seeded HUVEC cells in a 96-well plate at 7 × 10^3 per well. […] DCF fluorescence was assessed at F488/525 nm by using a bioassay multi-detection fluorescent plate reader (Tecan Spark, Switzerland).

[3] = design: method as in Guan et al. 2014; Cheruvu et al. 2018; Jia et al. 2020; details: in different herbal extracts and prescriptions; ref Guan et al. 2014; Cheruvu et al. 2018; Jia et al. 2020; cited from earlier work
[4] = male, Sprague-Dawley, rat, n = 6

half-life [1, 4] [h]	AUC(0-t) ([1]; male, Sprague-Dawley, rat) [ng·h/mL]	Cmax ([1]; male, Sprague-Dawley, rat) [ng/mL]	MRT last ([1]; male, Sprague-Dawley, rat) [h]	MRT inf ([1]; male, Sprague-Dawley, rat) [h]	AUC(0-inf) ([1]; male, Sprague-Dawley, rat) [ng·h/mL]	Tmax ([1]; n = 6) [h]	Stability in rat plasma, Three freeze/thaw cycles, Measured ([2]; 1 ng/mL) [ng/mL]	Stability in rat plasma, Three freeze/thaw cycles, Measured ([2]; 10 ng/mL) [ng/mL]	Stability in rat plasma, Three freeze/thaw cycles, Measured ([2]; 200 ng/mL) [ng/mL]	Stability in rat plasma, Room temperature (4 h, 25 °C), Measured ([2]; 1 ng/mL) [ng/mL]	Stability in rat plasma, Room temperature (4 h, 25 °C), Measured ([2]; 10 ng/mL) [ng/mL]	Stability in rat plasma, Room temperature (4 h, 25 °C), Measured ([2]; 200 ng/mL) [ng/mL]	Stability in rat plasma, Autosampler (12 h, 4 °C), Measured ([2]; 1 ng/mL) [ng/mL]	Stability in rat plasma, Autosampler (12 h, 4 °C), Measured ([2]; 10 ng/mL) [ng/mL]	Stability in rat plasma, Autosampler (12 h, 4 °C), Measured ([2]; 200 ng/mL) [ng/mL]	Stability in rat plasma, Long term (7 day, –80 °C), Measured ([2]; 1 ng/mL) [ng/mL]	Stability in rat plasma, Long term (7 day, –80 °C), Measured ([2]; 10 ng/mL) [ng/mL]	Stability in rat plasma, Long term (7 day, –80 °C), Measured ([2]; 200 ng/mL) [ng/mL]	Structure (SMILES)	ROS generation induced by HG (HUVEC cells)	further results
11.7 ± 2.09	40.8 ± 8.51	6.17 ± 1.65	10.7 ± 1.17	15.7 ± 1.9	46 ± 7.89	0.46 ± 0.29	1.0 ± 0.1	10.1 ± 1.0	206.3 ± 21.0	1.1 ± 0.1	11.8 ± 0.2	220.6 ± 3.5	1.2 ± 0.1	10.1 ± 0.2	222.6 ± 3.6	1.1 ± 0.1	10.2 ± 0.2	216.0 ± 4.3	COc1ccc(-c2coc3cc(O)ccc3c2=O)cc1 [Formononetin]	could alleviate the symptom of DR	Tmax ([1]; n = 6, listed as formononetin): ≤ 1 h
11.1 ± 10.2	38.5 ± 7.61	3.27 ± 0.78	11.4 ± 1.23	18.2 ± 9.14	44 ± 4.19	–	1.1 ± 0.1	11.4 ± 0.8	218.0 ± 9.9	1.2 ± 0.1	11.3 ± 0.3	217.9 ± 11.7	1.1 ± 0.1	10.0 ± 0.2	205.6 ± 0.9	1.0 ± 0.1	10.4 ± 0.6	221.9 ± 6.8	O=c1cc(-c2ccc(O)c(O)c2)oc2cc(O)cc(O)c12 [Luteolin]	could alleviate the symptom of DR	Tmax ([1]; male, Sprague-Dawley, rat, po, 9.6 g/kg, n = 6, read-out: Tmax): 1.71 ± 1.79 h; Tmax [3]: 0.50 to 2.83 h; t1/2 [3]: 3.63 to 12.10 h
2.08 ± 0.38	175 ± 40.8	45.5 ± 21.2	8.9 ± 3.44	8.91 ± 3.44	175 ± 40.8	0.25 ± 0.14	–	–	–	–	–	–	–	–	–	–	–	–	C[C@@H]1O[C@@H](O[C@@H]2[C@@H](O)[C@H](OCCc3ccc(O)c(O)c3)O[C@H](CO)[C@H]2OC(=O)/C=C/c2ccc(O)c(O)c2)[C@H](O)[C@H](O)[C@H]1O [Verbascoside]	–	Tmax ([1]; n = 6, listed as verbascoside): ≤ 1 h; t1/2 ([1]; n = 6, listed as verbascoside): rapid elimination; Stability in rat plasma, Three freeze/thaw cycles, Measured ([2]; 2 ng/mL): 2.0 ± 0.1 ng/mL; Stability in rat plasma, Three freeze/thaw cycles, Measured ([2]; 20 ng/mL): 21.8 ± 1.9 ng/mL; Stability in rat plasma, Three freeze/thaw cycles, Measured ([2]; 400 ng/mL): 416.4 ± 17.6 ng/mL; Stability in rat plasma, Room temperature (4 h, 25 °C), Measured ([2]; 2 ng/mL): 2.2 ± 0.1 ng/mL; Stability in rat plasma, Room temperature (4 h, 25 °C), Measured ([2]; 20 ng/mL): 19.6 ± 1.0 ng/mL; Stability in rat plasma, Room temperature (4 h, 25 °C), Measured ([2]; 400 ng/mL): 427.6 ± 13.8 ng/mL; Stability in rat plasma, Autosampler (12 h, 4 °C), Measured ([2]; 2 ng/mL): 2.1 ± 0.2 ng/mL; Stability in rat plasma, Autosampler (12 h, 4 °C), Measured ([2]; 20 ng/mL): 23.8 ± 1.8 ng/mL; Stability in rat plasma, Autosampler (12 h, 4 °C), Measured ([2]; 400 ng/mL): 402.4 ± 19.1 ng/mL; Stability in rat plasma, Long term (7 day, –80 °C), Measured ([2]; 2 ng/mL): 1.9 ± 0.2 ng/mL; Stability in rat plasma, Long term (7 day, –80 °C), Measured ([2]; 20 ng/mL): 21.3 ± 1.8 ng/mL; Stability in rat plasma, Long term (7 day, –80 °C), Measured ([2]; 400 ng/mL): 430.0 ± 6.2 ng/mL
